6 compounds from publication PMC8277928, “Influence of Terminal Functionality on the Crystal Packing Behaviour and Cytotoxicity of Aromatic Oligoamides” (Frontiers in Chemistry, 2021) can be followed below.

Read-outs that look alike come from different tables or passages of the source.

For data set [1], the system named is MDA-MB-231 breast adenocarcinoma cells. Description: MTT cytotoxicity (chemosensitivity) assay, 96 h. The class given is cell-based, human. The conditions noted are these: for IC50: 96 h incubation, MTT, 37°C, 5% CO2, read-out: IC50 values (μM) ± SD, MDA-MB-231; for Selectivity Index (SI), MDA-MB-231 compared to PNT-2: IC50 PNT-2 divided by IC50 MDA-MB-231, * = minimum SI value. The procedure:
(§1) The IC50 values were obtained via the MTT assay after a 96 h incubation period of each compound with the cells at 37°C and 5% CO2 (Table 2; Figure 6). […]
(§2) In vitro chemosensitivity assays were performed against human ovarian carcinoma (A2780), cisplatin-resistant human ovarian carcinoma (A2780cisR) and human breast adenocarcinomas (MCF-7 and MDA-MB-231). Additionally, growth inhibitory effects were also tested against non-malignant prostate cell line immortalised with SV40, PNT-2. All cell lines were provided by the Institute of Cancer Therapeutics, University of Bradford and were routinely maintained as monolayer cultures in RPMI 1640 media supplemented with 10% foetal calf serum, sodium pyruvate (1 mM) and L-glutamine (2 mM). All assays were conducted in 96-well round bottom plates, with control lanes for media and 100% cell growth. Cell concentrations of 1 x 10^4 cells/mL were used, and 100 µL (or 100 µL media in control lane 1) of cell suspension were incubated for 24 h at 37 °C and 5% CO2 prior to drug exposure.
(§3) 100 mM stock solutions, which were further diluted with complete me dia to provide a range of final concentrations. After 24 h, 100 μL of the drug/media solutions were added to the plates (columns 3-12 drug concentrations, with 100 µL media in the control lanes), and then the plates incubated for 96 h at 37°C and 5% CO2. All drug solutions were added to the plates so that the final DMSO concentrations were <0.1% (v/v) in all cases. After 96 h, 3-(4,5-dimethylthiazol-2-yl)-2,5-diphenyltetrazolium bromide (MTT) (20 µL, 5 mg/mL) was added to each well and incubated for 3 h at 37 °C and 5% CO2. All solutions were then removed via pipette, 150 μL DMSO added to each well and the formazan crystals mixed thoroughly. A Thermo Scientific Multiscan EX microplate photometer was used to measure the absorbance of each well at 540 nm. Percentage cell viabilities were determined on a logarithmic scale, and the half maximal inhibitory concentration (IC50) determined from a plot of % cell survival versus concentration (µM). Each of the experiments was performed as duplicate technical repeats and triplicate experimental repeats, with mean values as the IC50 ± Standard Deviation (SD).

Data set [2] has as its system A2780cisR cisplatin-resistant ovarian carcinoma cells. As to the kind of experiment: MTT cytotoxicity (chemosensitivity) assay, 96 h. The conditions noted are these: for IC50: 96 h incubation, MTT, 37°C, 5% CO2, read-out: IC50 values (μM) ± SD, A2780cisR; for Selectivity Index (SI), A2780cisR compared to PNT-2: IC50 PNT-2 divided by IC50 A2780cisR, * = minimum SI value. The class given is cell-based, human. On the procedure:
as §1, §2, §3

In data set [3] the test system is MCF-7 breast adenocarcinoma cells. Description: MTT cytotoxicity (chemosensitivity) assay, 96 h. The conditions noted are these: for IC50: 96 h incubation, MTT, 37°C, 5% CO2, read-out: IC50 values (μM) ± SD, MCF-7; for Selectivity Index (SI), MCF-7 compared to PNT-2: IC50 PNT-2 divided by IC50 MCF-7, * = minimum SI value. The class given is cell-based, human. The procedure: as §1, §2, §3

Data set [4] deals with A2780 cisplatin-sensitive ovarian carcinoma cells. Description: MTT cytotoxicity (chemosensitivity) assay, 96 h. The conditions noted are these: for IC50: 96 h incubation, MTT, 37°C, 5% CO2, read-out: IC50 values (μM) ± SD, A2780; for Selectivity Index (SI), A2780 compared to PNT-2: IC50 PNT-2 divided by IC50 A2780, * = minimum SI value. The class given is cell-based, human. On the procedure: as §1, §2, §3

Data set [5] has as its system PNT-2 non-malignant prostate cell line (immortalized with SV40). Description: MTT cytotoxicity (chemosensitivity) assay, 96 h, non-malignant cells. The conditions noted are these: 37°C, 5% CO2, read-out: IC50 values (μM) ± SD, PNT-2. The class given is cell-based, human. The procedure:
A SI value >1 indicates increased selectivity for the cancerous cell line over the non-malignant one, whilst a SI value <1 indicates the inverse (i.e., increased selectivity for the non-malignant cell line over the cancerous one). […]
as §2, §3

For data set [6], the system named is A2780, A2780cisR, MCF-7 and MDA-MB-231 cells. Description: MTT cytotoxicity assay, 96 h, range over all cancer cell lines. The class given is cell-based. The conditions noted are these: Homo sapiens, read-out: IC50 values against all cell lines (range). The procedure: as §1
as §2, with “Cell concentrations of 1 x 10^4 cells/mL were used, and 100 µL (or 100 µL media in control lane 1) of cell suspension were incubated for 24 h at 37 °C and 5% CO2 prior to drug exposure.” left out
100 mM stock solutions, which were further diluted with complete me dia to provide a range of final concentrations. […] A Thermo Scientific Multiscan EX microplate photometer was used to measure the absorbance of each well at 540 nm. Percentage cell viabilities were determined on a logarithmic scale, and the half maximal inhibitory concentration (IC50) determined from a plot of % cell survival versus concentration (µM). […]
Background: Tetrazolium dyes change colour on reduction, which living cells bring about.

The mark [7] stands for this setting: Homo sapiens, PNT2, 96 h incubation.

As usually defined, the IC50 is the concentration that inhibits the measured activity by half. On to `[NH2][Pt]([NH2])([Cl])[Cl]` [CDDP, cisplatin, reference compound], for which the IC50 stood at 3.07 ± 0.02 µM in data set [1]; 14 ± 1 µM in data set [2]; 1.5 ± 0.2 µM in data set [3]; 1.3 ± 0.1 µM in data set [4]; 8.5 ± 0.4 µM in data set [5] (96 h incubation). For the same compound, in data set [1], the “Selectivity Index (SI), MDA-MB-231 compared to PNT-2” value is 2.8. The “Selectivity Index (SI), A2780cisR compared to PNT-2” value (from here on “Selectivity Index (SI), A2780cisR”) in data set [2] was 0.6. The “Selectivity Index (SI), MCF-7 compared to PNT-2” value in data set [3] came out at 5.6.

Turning to `CC(C)(C)OC(=O)Nc1ccccc1NC(=O)c1cccc(C(=O)Nc2ccccc2NC(=O)OC(C)(C)C)n1` [Compound 2], in data set [1] (96 h MTT), the “cytotoxicity in words, MDA-MB-231” value was “moderate to non-cytotoxic”. Besides, the half-inhibitory concentration (IC50) was 69 ± 3 µM in data set [1] (Homo sapiens, MDA-MB-231); greater than 100 µM in data set [2] (Homo sapiens, A2780cisR); 84 ± 3 µM in data set [3] (Homo sapiens, MCF7); 24 ± 0.9 µM in data set [4] (Homo sapiens, A2780); greater than 100 µM in data set [5] (setting [7]). Moreover, the “Selectivity Index (SI), MDA-MB-231 compared to PNT-2” value in data set [1] is given as greater than 1.4. In data set [2] (96 h MTT), the “cytotoxicity in words, A2780cisR” value is recorded as “moderate to non-cytotoxic”. The “cytotoxicity in words, MCF-7” value in data set [3] (96 h MTT) is given as “moderate to non-cytotoxic”. In data set [3], the “Selectivity Index (SI), MCF-7 compared to PNT-2” value is greater than 1.2. Also, in data set [4], the “Selectivity Index (SI), A2780 compared to PNT-2” value is given as greater than 4.2.

For the compound `Nc1ccccc1NC(=O)c1cccc(C(=O)Nc2ccccc2N)n1` [Compound 3], the IC50 is greater than 100 µM in data set [1] (Homo sapiens, MDA-MB-231); 61 ± 2 µM in data set [2] (Homo sapiens, A2780cisR); greater than 100 µM in data set [3] (Homo sapiens, MCF7); greater than 100 µM in data set [4] (Homo sapiens, A2780); greater than 100 µM in data set [5] (setting [7]). Moreover, the “Selectivity Index (SI), A2780cisR” value in data set [2] is given as greater than 1.6. Also, the “cytotoxicity in words, A2780” value in data set [4] (96 h MTT) is recorded as “non-toxic”.

For the compound `CC(=O)Nc1ccccc1NC(=O)c1cccc(C(=O)Nc2ccccc2NC(C)=O)n1` [Compound 1], the IC50 was 63 ± 4 µM in data set [1] (Homo sapiens, MDA-MB-231); greater than 100 µM in data set [2] (Homo sapiens, A2780cisR); greater than 100 µM in data set [3] (Homo sapiens, MCF7); 77 ± 5 µM in data set [4] (Homo sapiens, A2780); greater than 100 µM in data set [5] (setting [7]); no less than 63 µM in data set [6]. The “Selectivity Index (SI), MDA-MB-231 compared to PNT-2” value in data set [1] is listed as greater than 1.6. Besides, the “Selectivity Index (SI), A2780 compared to PNT-2” value in data set [4] is greater than 1.3.

On to `N.N.O=C([O-])C1(C(=O)[O-])CCC1.[Pt+2]` [CARB, carboplatin, reference compound], for which the concentration for half-maximal inhibition (IC50) is 33 ± 2 µM in data set [1]; greater than 100 µM in data set [2]; greater than 100 µM in data set [3]; 17 ± 1 µM in data set [4]; 27 ± 2 µM in data set [5] (96 h incubation). Also, in data set [1], the “Selectivity Index (SI), MDA-MB-231 compared to PNT-2” value was 0.8. Also, the “Selectivity Index (SI), A2780cisR” value in data set [2] is greater than 0.3. The “Selectivity Index (SI), MCF-7 compared to PNT-2” value in data set [3] is recorded as greater than 0.3.

Take `O=C1[O][Pt]2([NH][C@@H]3CCCC[C@H]3[NH]2)[O]C1=O` [OXA, oxaliplatin, reference compound]: in data set [1], the IC50 stood at 2.5 ± 0.6 µM and the “Selectivity Index (SI), MDA-MB-231 compared to PNT-2” value was 0.5. In data set [2], the IC50 turned out to be 2.09 ± 0.03 µM and the “Selectivity Index (SI), A2780cisR” value is 0.6. In data set [3], the IC50 was 2.6 ± 0.2 µM and the “Selectivity Index (SI), MCF-7 compared to PNT-2” value is recorded as 0.5. Besides, in data set [4], the IC50 amounted to 0.505 ± 0.002 µM and the “Selectivity Index (SI), A2780 compared to PNT-2” value amounted to 2.6. For the same compound, in data set [5] (96 h incubation), the half-inhibitory concentration (IC50) stood at 1.3 ± 0.2 µM.
